Here are results for 2 compounds from patent US8546320B2, “Hsp9O-targeted anti-cancer chimeric peptide” (Kyoto University, priority 2008, dated 2013).

Where two headings read alike, the source gives them in different places. Where a SMILES comes first, the peptide text is derived from it. Where only a bound is given, the exact number is not on record here.

One data set concerns A549. It counts as cell-based. The conditions noted are these: 24 h.
Another data set relates to BXPC-3. The data set is classed as cell-based, human.
In the next data set the test system is BT-20. It counts as cell-based, human. The conditions noted are these: 24 h. How it is done: (§1) A total of 3×10^3 cells were inoculated per well on a 96 well plate and cultured in a medium containing 10% FBS for 24 hours, and incubated with 100 μl of a peptide having a gradual increase in concentration at 37° C. for 48 to 72 hours. The survival rate of the cells was measured by using WST-8 solution (Cell Count Reagent SF; Nacalai Tesque, Inc.).
(§2) A total of 3×10^3 cells per well were inoculated onto a 96 well plate, and incubated in a medium containing 10% FBS with 100 μl of a peptide diluted stepwise at 37° C. for 48 to 72 hours. The survival rate of the cells was measured by using WST-8 solution (Cell Count Reagent SF; Nacalai Tesque, Inc.).

The subject of another data set is leukemia cell strains. The data set is classed as cell-based, human. The protocol:
as §2

A further data set has as its system LNCap. The data set is classed as cell-based, human.
Another data set concerns MDA-MB-231. It counts as cell-based. Particulars: 24 h.
Data set [1] concerns Caki-1. The data set is classed as cell-based, human.
A further data set concerns OE19. It counts as cell-based. Particulars: 24 h. The protocol: as §1, §2
A further data set relates to cancer cells. Briefly: Cell viability assay, summary statements on cancer cells. The data set is classed as cell-based. The conditions noted are these: 24 h.
Data set [2] relates to Human pancreatic cancer cells (Bxpc 3). Briefly: Anti-tumor effect in cancer-bearing animal models, local administration. It counts as in vivo. Particulars: site of administration and behavior observed. The protocol:
Human pancreatic cancer cells (Bxpc 3) (5.0×10^6) were suspended in 150 μl of phosphate-buffered physiological saline (PBS) and transplanted subcutaneously into nude mice (BALB/c Slc-nu/nu). After 5 days, 150 μl of the Antp-TPR peptide suspended in PBS at a concentration of 1 mg/kg to 5 mg/kg was administered to the solid cancer every two days for a total of nine times, and the tumor contraction effect was examined. The tumor diameter was measured with calipers and the tumor volume (mm^3) was calculated according to the formula: length (mm)×minor diameter (mm)^2×0.5.

The next data set deals with THP-1. Briefly: cells. It counts as cell-based, human. How it is done:
as §2

The test system of a further data set is K562. As to the kind of experiment: cells. The data set is classed as cell-based, human. How it is done: as §2
The next data set concerns HL-60. Briefly: cells. The data set is classed as cell-based, human. The protocol:
as §2

The subject of data set [3] is U937. Briefly: cells. It counts as cell-based, human. The protocol:
as §2

Data set [4] addresses T1, interaction between Hsp90 and the Hop's TPR2A domain (Homo sapiens, UniProt P07900).
T1 construct: histidine tag; made in house; host or cells: Hsp90: E. coli BL21 (pDEST17-Hsp90)
Briefly: BIACORE competition: Hsp90 pre-mixed with peptide, added to immobilized TPR2A. The data set is classed as binding. Particulars: for Binding of Hsp90 (%): to immobilized TPR2A. From the text:
It was examined whether the TPR peptide designed could compete specifically with the interaction between Hsp90, which is essential for the accurate folding of some carcinogenic protein including survivin in cancer cells, and the Hop's TPR2A domain.
Background: Surface plasmon resonance follows binding to a sensor surface in real time, without labels.

The subject of data set [5] is U937. Briefly: Penetration experiment, confocal microscope, U937. Particulars: U937, TAMRA-labeled peptide 10 μM, 1 hour. It counts as cell-based, human. The protocol:
TPR-TAMRA (TAMRA labeled body) or Antp-TPR-TAMRA (TAMRA labeled body) was added to 1×10^6 peripheral blood mononuclear cells (PBMCs), which were prepared from U937 cells, a mouse leukemia cell strain EL4 or mouse peripheral blood, at a final concentration of 10 μM, and the mixture was cultured for 1 hour. The peptide incorporated in the cell or influx of the medium into the cell after peptide penetration was observed under a confocal microscope (Olympus FV1000 (Olympus)), using a medium containing calcein.
TPR-TAMRA (TAMRA labeled body) or Antp-TPR-TAMRA (TAMRA labeled body) was added to 1×10^6 U937 cells to a final concentration of 10 μM; the mixture was cultured for one hour; and then the behavior of the peptide incorporated into the cell or the influx of the medium into the cell after peptide penetration was observed under a confocal microscope (Olympus FV1000 (Olympus)), using a calcein-containing medium.

The test system of a further data set is HEK293. As to the kind of experiment: cells. The conditions noted are these: Normal cell HEK; read-out: Anti-tumor activity, IC50 (μM) ± SD. The data set is classed as cell-based, human. The protocol:
as §1, §2

For data set [6], the system named is Caki-1. The data set is classed as cell-based, human. Particulars: Caki-1, 68 μM. How it is done: The TPR peptide or the TPR scramble peptide was mixed with a commercially available transfection reagent (Profect-P2 or, Lipofectamine LTX) and the mixture was left to incubate at room temperature for 20 minutes, to form liposome before the complex was added to cancer cells (Caki-1 (kidney cancer cells)); the survival rate of the cells was then measured by using WST-8 solution (Cell Count Reagent SF; Nacalai Tesque, Inc.) and the results were compared with those such as in the case of the TPR scramble peptide or the liposome alone.

Another data set concerns MRC-5. It counts as cell-based, human. The conditions noted are these: Normal cell MRC5; read-out: Anti-tumor activity, IC50 (μM) ± SD. The protocol: as §1
The subject of a further data set is T47D. It counts as cell-based, human. Particulars: Breast cancer T47D; read-out: Anti-tumor activity, IC50 (μM) ± SD. How it is done: as §1

On to `CC[C@H](C)[C@H](NC(=O)[C@H](CCCNC(=N)N)NC(=O)[C@H](C)NC(=O)[C@H](Cc1ccc(O)cc1)NC(=O)[C@H](C)NC(=O)[C@H](CCCCN)NC(=O)[C@H](CCCCN)NC(=O)[C@H](CCCCN)NC(=O)[C@H](Cc1c[nH]c2ccccc12)NC(=O)[C@H](CCCCN)NC(=O)[C@H](CCSC)NC(=O)[C@H](CCCNC(=N)N)NC(=O)[C@H](CCCNC(=N)N)NC(=O)[C@H](CC(N)=O)NC(=O)[C@H](CCC(N)=O)NC(=O)[C@H](Cc1ccccc1)NC(=O)[C@H](Cc1c[nH]c2ccccc12)NC(=O)[C@@H](NC(=O)[C@H](CCCCN)NC(=O)[C@@H](NC(=O)[C@H](CCC(N)=O)NC(=O)[C@@H](N)CCCNC(=N)N)[C@@H](C)CC)[C@@H](C)CC)C(=O)NCC(=O)N[C@@H](CC(N)=O)C(=O)N[C@@H](CO)C(=O)N[C@@H](Cc1ccc(O)cc1)C(=O)N[C@@H](Cc1ccccc1)C(=O)N[C@@H](CCCCN)C(=O)O` [Antp-TPR] (H-RQIKIWFQNRRMKWKKKAYARIGNSYFK-OH; N-terminus and C-terminus assumed), for which the IC50 (as a rule, the concentration that inhibits the measured activity by half) with A549 is 52.9 ± 2.5 µM; with BXPC-3 (24 h) it was 39.8 ± 2.2 µM; in the data set on BT-20, 32.8 ± 5.5 µM; with leukemia cell strains, 20 to 60 µM; in the data set with LNCap (24 h), 49.1 ± 3 µM; in the data set with MDA-MB-231, 56.9 ± 12.3 µM. Further, the IC50 is 43.3 ± 3 µM in the data set on Caki-1 [1] (24 h); 29.9 ± 3.4 µM in the data set with OE19; 20 to 60 µM with cancer cells; 24.7 µM in the data set with THP-1; 54.2 µM in the data set on K562; 46.4 µM in the data set with HL-60. In the data set with U937 [3], this compound gave an IC50 of 25.2 µM. Also, the “toxicity to the mice” value in data set [2] was “little toxicity to the mice”. Further, the “Cell Survival Rate (%)” value in the data set with U937 [3] was 23.24%.

Turning to `CC[C@H](C)[C@H](NC(=O)[C@H](CCCNC(=N)N)NC(=O)[C@H](C)NC(=O)[C@H](Cc1ccc(O)cc1)NC(=O)[C@H](C)NC(=O)[C@@H](N)CCCCN)C(=O)NCC(=O)N[C@@H](CC(N)=O)C(=O)N[C@@H](CO)C(=O)N[C@@H](Cc1ccc(O)cc1)C(=O)N[C@@H](Cc1ccccc1)C(=O)N[C@@H](CCCCN)C(=O)O` [TPR], in data set [4] (increasing peptide concentration), the “inhibition of the interaction between Hsp90 and TPR2A” value is “exerts an influence on the interaction between Hsp90 and TPR2A”. Also, the “Binding of Hsp90 (%)” value in data set [4] (peptide 1.411 μM) was 88.19%; in data set [4] (peptide 14.11 μM) it was 84.60%; in data set [4] (peptide 141.1 μM) it was 72.26%; in data set [4] (peptide 282.2 μM) it was 29.75%; in data set [4] (peptide 705.5 μM) it was 0%. The IC50 is above 352 µM in the data set with BXPC-3 (Pancreatic cancer Bxpc3, read-out: Anti-tumor activity, IC50 (μM) ± SD); above 352 µM with LNCap (Prostate cancer LNcap, read-out: Anti-tumor activity, IC50 (μM) ± SD); above 352 µM in the data set with HEK293; above 352 µM in the data set on Caki-1 [1] (Kidney cancer Caki-1, read-out: Anti-tumor activity, IC50 (μM) ± SD); above 352 µM with MRC-5; above 352 µM in the data set with T47D. For the same compound, the intracellular penetration entry in the data set on U937 [5] is reported as “did not penetrate into the cell”. Moreover, the “killing effect after introduction with transfection reagent” value with Caki-1 [6] was “observed when the TPR peptide was introduced”. Besides, the “Cell Survival Rate (%)” value in the data set with U937 [3] is reported as 92.79%. In addition, the “Anti-cancer activity (% relative to wild-type peptide)” value with U937 [3] (U937, wild-type peptide = 100%) turned out to be 9.39%. Also, the “Decrease in cell survival rate (% relative to wild-type peptide)” value in the data set with U937 [3] (U937, wild-type peptide = 100%) came out at 25.04%.
